Source: patent publication US8796302B2 (priority 2004, dated 2014)

How the values were obtained:
[1] = test system: microglia in neuron-glia cultures; experiment: OX-42 immunostaining of LPS-induced microglial activation; format: cell-based, rat; settings: for LPS-induced activation of microglia (OX-42): LPS 5 ng/ml, 12 h
Experimental: Dopaminergic neurons were recognized with the anti-TH antibody and microglia were detected with the OX-42 antibody, which recognizes the CR3 receptor. This was accomplished as follows: 3.7% formaldehyde-fixed cultures were treated with 1% hydrogen peroxide for about 10 minutes followed by sequential incubation with a blocking solution (30 min), primary antibody (overnight, 4° C.), biotinylated secondary antibody (2 hours), and ABC reagents (40 min). The color was developed with 3,3′-diaminobenzidine.
Neuron-glia cultures were prepared and treated with vehicle, LPS (5 ng/ml), or LPS plus DM respectively as in Example 1. Twelve hours later, cultures were immunostained with anti-OX-42 antibody. Images shown are representative of three separate experiments. The immunostaining and morphological analysis was accomplished as in Example 2.
Mesencephalic neuron-glia cultures were pretreated with VPA for 48 h and then treated with 20 ng/ml LPS for 72 h, as described in Example 19. Immunostaining with an antibody against OX-42 was then performed, as described in Example 19.

TNFα = TNFα production in neuron-glia cultures of PHOX+/+ and PHOX−/− mice; format: cell-based, mouse; settings: DM 10^−14 M
Experimental: (§1) Neurotoxicity was assessed by DA uptake as described in Example 1. TNFα production was measured by ELISA and iROS was determined by DCFDA as in Example 5. Results are expressed as a percentage of the control culture in FIG. 7A, pg/ml in FIG. 7B, and difference from control in FIG. 7C, respectively, and are the mean±S.E.M. of five individual experiments with triplicates in each experiment. *, P<0.05 compared with LPS culture.
(§2) The rat and mouse ventral mesencephalic neuron-glia cultures were prepared as in Example 1. […] DA neurotoxicity was measured by using the [^3H] DA uptake assay as in Example 1. The data are expressed as the percent of the control cultures and are the mean±SEM. The release of TNFα was measured with a commercially available enzyme-linked immunosorbent assay kit. *P<0.05, **P<0.01, compared to control. The amount of TNFα was measured as in Example 2.

[2] = test system: dopaminergic neurons in PHOX^+/+ and PHOX^−/− mouse neuron-glia cultures; experiment: [3H]DA uptake in neuron-glia cultures of PHOX+/+ and PHOX−/− mice; format: cell-based; settings: DM 10^−14 M, LPS 10 ng/ml
Experimental: To further study the role of ROS in DM-elicited neuroprotection, neuron-glia cultures were prepared from NADPH oxidase-deficient (PHOX^−/−) and wild-type (PHOX^+/+) mice.
as §1, §2

[3] = test system: GalN/LPS-induced liver gene expression; experiment: Liver gene expression (real-time RT-PCR) after GalN/LPS; format: in vivo, mouse
Text: Total RNA was extracted from liver tissues (n=4 to 5) by Trizol reagent (Sigma, St. Louis, Mo.) and purified with an RNeasy column (Qiagen, Valencia, Calif.). Expression of the selected genes was quantified using real-time RT-PCR analysis that began by reverse transcribing the samples with MuLV reverse transcriptase and oligo-dT primers.
The SYBR green DNA PCR kit (Applied Biosystems, Foster City, Calif.) was used for real-time PCR analysis. The relative differences in expression between groups were expressed using cycle time (Ct) values and the relative differences between groups were expressed as relative increases setting control as 100%. Assuming that the Ct value is reflective of the initial starting copy and that there is 100% efficacy, a difference of one cycle is equivalent to a two-fold difference in starting copy.

PGE2 = PGE2 release (EIA) after LPS; format: cell-based, rat
[4] = test system: neurons in neuron-enriched cultures; experiment: MAP-2 / TH immunostaining morphology of neuron-enriched cultures; format: cell-based, rat; settings: 7 days exposure; media conditioned 48 hours; VPA 0.6 mM
Experimental: Neuron-enriched cultures were immunostained with MAP-2 for morphological examination. FIGS. 40A-40D show morphological features of neuron-enriched cultures were examined after incubation with vehicle (A), 0.6 mM VPA (B), ACM (C) or ACM-VPA (D) for 7 days and then immunocytostaining with MAP-2 antibody.
The immunostaining was carried out according to the following procedure. Formaldehyde (3.7%)-fixed cultures were treated with 1% hydrogen peroxide (10 min) followed by sequential incubation with blocking solution (30 min), primary antibody (overnight, 4° C.), biotinylated secondary antibody (2 hours), and ABC reagents (40 min) (Vector Laboratories, Burlingame, Calif.). The color development was achieved by the addition of 3,3′-diaminobenzidine. For morphological analysis, the images were recorded with an inverted microscope (Nikon, Tokyo, Japan) connected to a charge-coupled device camera (DAGE-MTI, Michigan City, Ind.) operated with the MetaMorph software (Universal Imaging Corporation, Downingtown, Pa.). For visual counting of TH-IR neurons, nine representative areas per well of the 24-well plate were counted under the microscope at 100× magnification.
To specifically visualize morphological changes in DA neurons, we immunostained neuron-enriched cultures with anti-TH antibody. […]

[5] = ratio to control, 12 hr, DM 12.5 mg/kg sc x2

With `COc1ccc2c(c1)[C@@]13CCCC[C@H]1[C@@H](C2)N(C)CC3` [DM, d-3-methoxy-N-methylmorphinan] the “LPS-induced activation of microglia (OX-42)” value ([1]; DM 10^−5 M and 10^−14 M) was “prevented the LPS-induced activation of microglia”, the “LPS-induced activation of microglia (OX-42)” value ([1]; DM 10^−10 M) was “didn't significantly inhibit microglia activation” and the “LPS-induced TNFα production” value (TNFα; PHOX+/+ mice) was “significantly reduce TNFα production”. For the same compound, the “LPS-induced TNFα production” value (TNFα; PHOX−/− mice) was “not seen”, the “LPS-induced reduction of [3H]-dopamine uptake” value ([2]; PHOX+/+ mice) was “significantly attenuated this decrease” and the “LPS-induced reduction of [3H]-dopamine uptake” value ([2]; PHOX−/− mice) was “failed to show any protective effect”. For the same compound, the “MIP-2 expression, LPS + DM” value ([3]; 12 hr after GalN/LPS, DM 12.5 mg/kg sc x2, controls 1.0, LPS/GalN alone 153.3 ± 6.4) was 39.0 ± 2.1 fold, the “GADD153 expression, LPS + DM” value ([3]; 12 hr, DM 12.5 mg/kg sc x2, controls 1.0, LPS/GalN alone 7.4 ± 0.3) was 2.7 ± 1.3 fold and the “ICAM-1 expression, LPS + DM” value ([3]; 12 hr, DM 12.5 mg/kg sc x2, controls 1.0, LPS/GalN alone 8.45 ± 1.3) was 5.05 ± 2.7 fold. For the same compound, the “mKC expression, LPS + DM” value ([3]; 12 hr, DM 12.5 mg/kg sc x2, controls 1.0, LPS/GalN alone 13.7 ± 2.9) was 5.8 ± 1.6 fold, the “GADD45 expression, LPS + DM” value ([3]; 12 hr, DM 12.5 mg/kg sc x2, controls 1.0, LPS/GalN alone 24.6 ± 12.4) was 5.3 ± 2.4 fold and the “IL-10 expression, LPS + DM” value ([3]; 12 hr, DM 12.5 mg/kg sc x2, controls 1.0, LPS/GalN alone 25.3 ± 2.9) was 15.0 ± 3.3 fold. For the same compound, the “c-jun/AP-1 expression, LPS + DM” value ([3]; 12 hr, DM 12.5 mg/kg sc x2, controls 1.0, LPS/GalN alone 28.0 ± 7.5) was 9.1 ± 0.8 fold, the “c-myc expression, LPS + DM” value ([3]; 12 hr, DM 12.5 mg/kg sc x2, controls 1.0, LPS/GalN alone 45.4 ± 3.6) was 18.4 ± 2.1 fold and the “Thrombospondin-1 expression, LPS + DM” value ([3]; 12 hr, DM 12.5 mg/kg sc x2, controls 1.0, LPS/GalN alone 94.2 ± 2.5) was 56.0 ± 1.57 fold. The “IL-6 expression, LPS + DM” value ([3]; 12 hr, DM 12.5 mg/kg sc x2, controls 1.0, LPS/GalN alone 153.4 ± 13.3) was 43.6 ± 6.3 fold, the “GADD45, LPS + DM/Cont” value [3, 5] was 5.3 fold and the “GADD153, LPS + DM/Cont” value [3, 5] was 2.7 fold. The “ICAM-1, LPS + DM/Cont” value [3, 5] was 5.05 fold, the “IL-6, LPS + DM/Cont” value [3, 5] was 43.6 fold and the “IL-10, LPS + DM/Cont” value [3, 5] was 15 fold. For the same compound, the “MIP-2, LPS + DM/Cont” value [3, 5] was 39.0 fold, the “Thrombospondin-1, LPS + DM/Cont” value [3, 5] was 56.0 fold and the “c-jun/AP-1, LPS + DM/Cont” value [3, 5] was 9.1 fold. The “c-myc, LPS + DM/Cont” value [3, 5] was 18.4 fold, the “mKC, LPS + DM/Cont” value [3, 5] was 5.8 fold and the “LPS-induced increase in the release of PGE2” value (PGE2; DM 10^−5 M and 10^−14 M pretreatment) was “significantly decreased”. The “LPS-induced increase in the release of PGE2” value (PGE2; DM 10^−10 M pretreatment) was “no significant reduction” and the “PGE2 production, post treatment” value (PGE2; femtomolar DM after removal of LPS (20 ng/ml, 12 h), 24 h) was “reduction of NO and PGE2 production”.

With `CCCC(CCC)C(=O)O` [VPA, Valproic acid] the “LPS-stimulated activation of microglia (OX-42)” value ([1]; VPA 0.4 or 0.6 mM, 48 h pretreatment, LPS 20 ng/ml 72 h) was “suppressed”, the “microglia activation (OX-42), VPA alone” value ([1]; VPA alone) was “did not show significant effects on microglia activation” and the “neurite outgrowth (MAP-2 immunostaining)” value [4] was “Much smaller effects”.
